Measured values published in PubChem BioAssay (NCI).
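Where inhibition never reached the appropriate level, the endpoint shown equals the highest concentration tested. Otherwise, values were interpolated linearly from a five-concentration, 48-hour dose response in 96-well plates. The concentration for full growth arrest is given as TGI.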

Test system: OVCAR-3 ovarian
Experiment: NCI tumour cell line growth inhibition, 48 h

N#C/C(=C\Nc1ccccn1)C(=O)C1CC1 and O=C1c2ccccc2C(=O)N1CCCC(=O)n1cc(F)c(=O)[nH]c1=O cannot be ordered by TGI: > 100 µM for the first, > 79 µM for the second.

Cc1ccc(NCCN(C)C)c2c(=O)c3cc(O)ccc3oc12 was tested, and the TGI was 30.8 µM.

Test system: SK-MEL-2 melanoma
Experiment: NCI tumour cell line growth inhibition, 48 h

N#C/C(=C\Nc1ccccn1)C(=O)C1CC1 and O=C1c2ccccc2C(=O)N1CCCC(=O)n1cc(F)c(=O)[nH]c1=O cannot be ordered by TGI: > 100 µM for the first, > 100 µM for the second.

In the case of Cc1ccc(NCCN(C)C)c2c(=O)c3cc(O)ccc3oc12, the TGI is reported as 35.4 µM.

Test system: CCRF-CEM leukemia
Experiment: NCI tumour cell line growth inhibition, 48 h

N#C/C(=C\Nc1ccccn1)C(=O)C1CC1 and O=C1c2ccccc2C(=O)N1CCCC(=O)n1cc(F)c(=O)[nH]c1=O cannot be ordered by TGI: > 100 µM for the first, > 100 µM for the second.

Cc1ccc(NCCN(C)C)c2c(=O)c3cc(O)ccc3oc12 was tested, and the TGI was 16 µM.

Test system: HS 578T breast
Experiment: NCI tumour cell line growth inhibition, 48 h

N#C/C(=C\Nc1ccccn1)C(=O)C1CC1 and O=C1c2ccccc2C(=O)N1CCCC(=O)n1cc(F)c(=O)[nH]c1=O cannot be ordered by TGI: > 100 µM for the first, > 100 µM for the second.

With Cc1ccc(NCCN(C)C)c2c(=O)c3cc(O)ccc3oc12 the TGI was 19.9 µM.

Test system: COLO 205 colon
Experiment: NCI tumour cell line growth inhibition, 48 h

N#C/C(=C\Nc1ccccn1)C(=O)C1CC1 and O=C1c2ccccc2C(=O)N1CCCC(=O)n1cc(F)c(=O)[nH]c1=O cannot be ordered by TGI: > 100 µM for the first, > 100 µM for the second.

For Cc1ccc(NCCN(C)C)c2c(=O)c3cc(O)ccc3oc12, the TGI was 24.2 µM.

Test system: NCI/ADR-RES ovarian
Experiment: NCI tumour cell line growth inhibition, 48 h

N#C/C(=C\Nc1ccccn1)C(=O)C1CC1 and O=C1c2ccccc2C(=O)N1CCCC(=O)n1cc(F)c(=O)[nH]c1=O cannot be ordered by TGI: > 100 µM for the first, > 100 µM for the second.

With Cc1ccc(NCCN(C)C)c2c(=O)c3cc(O)ccc3oc12 the TGI was 24.3 µM.

Test system: UACC-62 melanoma
Experiment: NCI tumour cell line growth inhibition, 48 h

N#C/C(=C\Nc1ccccn1)C(=O)C1CC1 and O=C1c2ccccc2C(=O)N1CCCC(=O)n1cc(F)c(=O)[nH]c1=O cannot be ordered by TGI: > 100 µM for the first, > 100 µM for the second.

For Cc1ccc(NCCN(C)C)c2c(=O)c3cc(O)ccc3oc12, the TGI was 23 µM.

Test system: SK-OV-3 ovarian
Experiment: NCI tumour cell line growth inhibition, 48 h

N#C/C(=C\Nc1ccccn1)C(=O)C1CC1 and O=C1c2ccccc2C(=O)N1CCCC(=O)n1cc(F)c(=O)[nH]c1=O cannot be ordered by TGI: > 100 µM for the first, > 100 µM for the second.

Cc1ccc(NCCN(C)C)c2c(=O)c3cc(O)ccc3oc12 was tested, and the TGI was 26.4 µM.

Test system: MALME-3M melanoma
Experiment: NCI tumour cell line growth inhibition, 48 h

N#C/C(=C\Nc1ccccn1)C(=O)C1CC1 and O=C1c2ccccc2C(=O)N1CCCC(=O)n1cc(F)c(=O)[nH]c1=O cannot be ordered by TGI: > 100 µM for the first, > 100 µM for the second.

Compound Cc1ccc(NCCN(C)C)c2c(=O)c3cc(O)ccc3oc12 has a TGI of 27.3 µM.

Test system: HT29 colon
Experiment: NCI tumour cell line growth inhibition, 48 h

N#C/C(=C\Nc1ccccn1)C(=O)C1CC1 and O=C1c2ccccc2C(=O)N1CCCC(=O)n1cc(F)c(=O)[nH]c1=O cannot be ordered by TGI: > 100 µM for the first, > 100 µM for the second.

For Cc1ccc(NCCN(C)C)c2c(=O)c3cc(O)ccc3oc12, the TGI was 23.7 µM.

Test system: MDA-MB-435
Experiment: NCI tumour cell line growth inhibition, 48 h

N#C/C(=C\Nc1ccccn1)C(=O)C1CC1 and O=C1c2ccccc2C(=O)N1CCCC(=O)n1cc(F)c(=O)[nH]c1=O cannot be ordered by TGI: > 100 µM for the first, > 100 µM for the second.

With Cc1ccc(NCCN(C)C)c2c(=O)c3cc(O)ccc3oc12 the TGI was 24.4 µM.

Test system: MDA-N
Experiment: NCI tumour cell line growth inhibition, 48 h

N#C/C(=C\Nc1ccccn1)C(=O)C1CC1 and O=C1c2ccccc2C(=O)N1CCCC(=O)n1cc(F)c(=O)[nH]c1=O cannot be ordered by TGI: > 100 µM for the first, > 100 µM for the second.

For Cc1ccc(NCCN(C)C)c2c(=O)c3cc(O)ccc3oc12, the TGI was 23 µM.

Test system: A549 NSCLC
Experiment: NCI tumour cell line growth inhibition, 48 h

N#C/C(=C\Nc1ccccn1)C(=O)C1CC1 and O=C1c2ccccc2C(=O)N1CCCC(=O)n1cc(F)c(=O)[nH]c1=O cannot be ordered by TGI: > 100 µM for the first, > 100 µM for the second.

Cc1ccc(NCCN(C)C)c2c(=O)c3cc(O)ccc3oc12 gave a TGI of 20.9 µM.

Test system: M14 melanoma
Experiment: NCI tumour cell line growth inhibition, 48 h

N#C/C(=C\Nc1ccccn1)C(=O)C1CC1 and O=C1c2ccccc2C(=O)N1CCCC(=O)n1cc(F)c(=O)[nH]c1=O cannot be ordered by TGI: > 100 µM for the first, > 100 µM for the second.

With Cc1ccc(NCCN(C)C)c2c(=O)c3cc(O)ccc3oc12 the TGI was 25.3 µM.

Test system: EKVX NSCLC
Experiment: NCI tumour cell line growth inhibition, 48 h

N#C/C(=C\Nc1ccccn1)C(=O)C1CC1 and O=C1c2ccccc2C(=O)N1CCCC(=O)n1cc(F)c(=O)[nH]c1=O cannot be ordered by TGI: > 100 µM for the first, > 100 µM for the second.

Cc1ccc(NCCN(C)C)c2c(=O)c3cc(O)ccc3oc12 showed a TGI of 29.2 µM.

Test system: NCI-H226 lung
Experiment: NCI tumour cell line growth inhibition, 48 h

N#C/C(=C\Nc1ccccn1)C(=O)C1CC1 and O=C1c2ccccc2C(=O)N1CCCC(=O)n1cc(F)c(=O)[nH]c1=O cannot be ordered by TGI: > 100 µM for the first, > 100 µM for the second.

Cc1ccc(NCCN(C)C)c2c(=O)c3cc(O)ccc3oc12 showed a TGI of 29.5 µM.

Test system: HCC-2998 colon
Experiment: NCI tumour cell line growth inhibition, 48 h

N#C/C(=C\Nc1ccccn1)C(=O)C1CC1 and O=C1c2ccccc2C(=O)N1CCCC(=O)n1cc(F)c(=O)[nH]c1=O cannot be ordered by TGI: > 100 µM for the first, > 100 µM for the second.

With Cc1ccc(NCCN(C)C)c2c(=O)c3cc(O)ccc3oc12 the TGI was 24.3 µM.

Test system: OVCAR-5 ovarian
Experiment: NCI tumour cell line growth inhibition, 48 h

N#C/C(=C\Nc1ccccn1)C(=O)C1CC1 and O=C1c2ccccc2C(=O)N1CCCC(=O)n1cc(F)c(=O)[nH]c1=O cannot be ordered by TGI: > 100 µM for the first, > 100 µM for the second.

Cc1ccc(NCCN(C)C)c2c(=O)c3cc(O)ccc3oc12 gave a TGI of 29.1 µM.

Test system: OVCAR-8 ovarian
Experiment: NCI tumour cell line growth inhibition, 48 h

N#C/C(=C\Nc1ccccn1)C(=O)C1CC1 and O=C1c2ccccc2C(=O)N1CCCC(=O)n1cc(F)c(=O)[nH]c1=O cannot be ordered by TGI: > 100 µM for the first, > 100 µM for the second.

Cc1ccc(NCCN(C)C)c2c(=O)c3cc(O)ccc3oc12 gave a TGI of 19.7 µM.

Test system: SW-620 colon
Experiment: NCI tumour cell line growth inhibition, 48 h

N#C/C(=C\Nc1ccccn1)C(=O)C1CC1 and O=C1c2ccccc2C(=O)N1CCCC(=O)n1cc(F)c(=O)[nH]c1=O cannot be ordered by TGI: > 100 µM for the first, > 100 µM for the second.

Cc1ccc(NCCN(C)C)c2c(=O)c3cc(O)ccc3oc12 showed a TGI of 17 µM.

Test system: PC-3 prostate
Experiment: NCI tumour cell line growth inhibition, 48 h

N#C/C(=C\Nc1ccccn1)C(=O)C1CC1 and O=C1c2ccccc2C(=O)N1CCCC(=O)n1cc(F)c(=O)[nH]c1=O cannot be ordered by TGI: > 100 µM for the first, > 100 µM for the second.

Compound Cc1ccc(NCCN(C)C)c2c(=O)c3cc(O)ccc3oc12 has a TGI of 24.2 µM.

Test system: SK-MEL-5 melanoma
Experiment: NCI tumour cell line growth inhibition, 48 h

N#C/C(=C\Nc1ccccn1)C(=O)C1CC1 and O=C1c2ccccc2C(=O)N1CCCC(=O)n1cc(F)c(=O)[nH]c1=O cannot be ordered by TGI: > 100 µM for the first, > 100 µM for the second.

Work on Cc1ccc(NCCN(C)C)c2c(=O)c3cc(O)ccc3oc12 yielded a TGI of 24 µM.

Test system: SR leukemia
Experiment: NCI tumour cell line growth inhibition, 48 h

N#C/C(=C\Nc1ccccn1)C(=O)C1CC1 and O=C1c2ccccc2C(=O)N1CCCC(=O)n1cc(F)c(=O)[nH]c1=O cannot be ordered by TGI: > 100 µM for the first, > 100 µM for the second.

For Cc1ccc(NCCN(C)C)c2c(=O)c3cc(O)ccc3oc12, the TGI was 3.35 µM.

Test system: HCT-15 colon
Experiment: NCI tumour cell line growth inhibition, 48 h

N#C/C(=C\Nc1ccccn1)C(=O)C1CC1 and O=C1c2ccccc2C(=O)N1CCCC(=O)n1cc(F)c(=O)[nH]c1=O cannot be ordered by TGI: > 100 µM for the first, > 100 µM for the second.

Cc1ccc(NCCN(C)C)c2c(=O)c3cc(O)ccc3oc12 gave a TGI of 21.2 µM.

Test system: HOP-92 NSCLC
Experiment: NCI tumour cell line growth inhibition, 48 h

N#C/C(=C\Nc1ccccn1)C(=O)C1CC1 and O=C1c2ccccc2C(=O)N1CCCC(=O)n1cc(F)c(=O)[nH]c1=O cannot be ordered by TGI: > 100 µM for the first, > 100 µM for the second.

For Cc1ccc(NCCN(C)C)c2c(=O)c3cc(O)ccc3oc12, the TGI was 23.4 µM.

Test system: IGROV1 ovarian
Experiment: NCI tumour cell line growth inhibition, 48 h

N#C/C(=C\Nc1ccccn1)C(=O)C1CC1 and O=C1c2ccccc2C(=O)N1CCCC(=O)n1cc(F)c(=O)[nH]c1=O cannot be ordered by TGI: > 100 µM for the first, > 100 µM for the second.

In the case of Cc1ccc(NCCN(C)C)c2c(=O)c3cc(O)ccc3oc12, the TGI is reported as 24.9 µM.

Test system: MCF7 breast
Experiment: NCI tumour cell line growth inhibition, 48 h

N#C/C(=C\Nc1ccccn1)C(=O)C1CC1 and O=C1c2ccccc2C(=O)N1CCCC(=O)n1cc(F)c(=O)[nH]c1=O cannot be ordered by TGI: > 100 µM for the first, > 100 µM for the second.

In the case of Cc1ccc(NCCN(C)C)c2c(=O)c3cc(O)ccc3oc12, the TGI is reported as 19.6 µM.

Test system: UACC-257 melanoma
Experiment: NCI tumour cell line growth inhibition, 48 h

N#C/C(=C\Nc1ccccn1)C(=O)C1CC1 and O=C1c2ccccc2C(=O)N1CCCC(=O)n1cc(F)c(=O)[nH]c1=O cannot be ordered by TGI: > 100 µM for the first, > 100 µM for the second.

In the case of Cc1ccc(NCCN(C)C)c2c(=O)c3cc(O)ccc3oc12, the TGI is reported as 32.7 µM.

Test system: BT-549 breast
Experiment: NCI tumour cell line growth inhibition, 48 h

N#C/C(=C\Nc1ccccn1)C(=O)C1CC1 and O=C1c2ccccc2C(=O)N1CCCC(=O)n1cc(F)c(=O)[nH]c1=O cannot be ordered by TGI: > 100 µM for the first, > 100 µM for the second.

With Cc1ccc(NCCN(C)C)c2c(=O)c3cc(O)ccc3oc12 the TGI was 30.6 µM.

Test system: ACHN renal
Experiment: NCI tumour cell line growth inhibition, 48 h

In the case of N#C/C(=C\Nc1ccccn1)C(=O)C1CC1, the TGI is reported as > 100 µM.
